Measurements as given in a compilation of properties of binary mixtures (doi:10.1016/j.molliq.2022.118621).

Assay: xn = mol fraction of the nth substance listed
Conditions: 100 kPa

CC(=O)[O-].CCOCCn1cc[n+](C)c1 + O
Conditions | electrical conductivity [S/m] | viscosity [mPa·s]
288.15 K, x1 = 0.8294 | 0.352 | 41.8
288.15 K, x1 = 0.852 | 0.313 | 42.73
288.15 K, x1 = 0.8822 | 0.271 | 43.97
288.15 K, x1 = 0.9125 | 0.232 | 45.18
288.15 K, x1 = 0.9447 | 0.195 | 46.51
288.15 K, x1 = 1 | 0.13 | 48.34
293.15 K, x1 = 0.8294 | 0.415 | 33.23
293.15 K, x1 = 0.852 | 0.377 | 33.91
293.15 K, x1 = 0.8822 | 0.329 | 34.81
293.15 K, x1 = 1 | 0.18 | 38.07
298.15 K, x1 = 0.8294 | 0.463 | 26.38
298.15 K, x1 = 0.852 | 0.427 | 26.91
298.15 K, x1 = 0.8822 | 0.384 | 27.59
298.15 K, x1 = 0.9125 | 0.347 | 28.28
298.15 K, x1 = 1 | 0.247 | 30.01
303.15 K, x1 = 0.8294 | 0.551 | 20.99
303.15 K, x1 = 0.852 | 0.513 | 21.43
303.15 K, x1 = 0.8822 | 0.471 | 22
303.15 K, x1 = 0.9125 | 0.431 | 22.55
303.15 K, x1 = 1 | 0.329 | 23.97
308.15 K, x1 = 0.8294 | 0.674 | 16.9
308.15 K, x1 = 0.852 | 0.633 | 17.25
308.15 K, x1 = 0.9125 | 0.544 | 18.18
308.15 K, x1 = 0.9447 | 0.506 | 18.66
308.15 K, x1 = 1 | 0.435 | 19.35
313.15 K, x1 = 0.8294 | 0.804 | 13.77
313.15 K, x1 = 0.9125 | 0.676 | 14.84
313.15 K, x1 = 0.9447 | 0.638 | 15.22
318.15 K, x1 = 0.8294 | 0.985 | 11.31
318.15 K, x1 = 0.852 | 0.941 | 11.54
318.15 K, x1 = 0.8822 | 0.887 | 11.83
318.15 K, x1 = 0.9125 | 0.843 | 12.15
318.15 K, x1 = 0.9447 | 0.797 | 12.45
318.15 K, x1 = 1 | 0.719 | 12.9
